Measured values published in publication PMC10743905, “Design, Synthesis, and In Vitro and In Vivo Bioactivity Studies of Hydrazide–Hydrazones of 2,4-Dihydroxybenzoic Acid” (International Journal of Molecular Sciences, 2023).
≈ marks a conversion by molar mass, not a printed value. Like-named read-outs stand apart in the source and are kept apart here.

Columns and labels:
[1] = tested on: Micrococcus luteus ATCC 10240; assay: Broth microdilution MIC/MBC; type: cell-based; settings: for MBC: ATCC10240
Description: (§1) In vitro antimicrobial activity assays - Methodology
(§2) The examined compounds 1 - 24 were screened in vitro for antibacterial and antifungal activities using the broth microdilution method according to procedure reported earlier by our research group and European Committee on Antimicrobial Susceptibility Testing (EUCAST) and Clinical and Laboratory Standards Institute (CLSI) guidelines against a panel of reference and clinical or saprophytic strains of microorganisms, in-cluding Gram-positive bacteria, Staphylococcus aureus ATCC 43300 (Methicillin Resistant S. aureus – MRSA), Staphylococcus aureus ATCC 29213 (Methicillin Susceptible S. aureus – MSSA), Staphylococcus epidermidis ATCC 12228, Enterococcus faecalis ATCC 29212, Micro-coccus luteus ATCC 10240, Bacillus subtilis ATCC 6633 and Bacillus cereus ATCC 10876), Gram-negative bacteria (Bordetella bronchiseptica ATCC 4617, Escherichia coli ATCC 25922, Klebsiella pneumoniae ATCC 13883, Proteus mirabilis ATCC 12453, Salmonella typhimurium ATCC 14028 and Pseudomonas aeruginosa ATCC 9027) and fungi belonging to yeasts (Can-dida albicans ATCC 10231, Candida albicans ATCC 2091, Candida parapsilosis ATCC 22019, Candida glabrata ATCC 90030 and Candida krusei ATCC 14243). The microorganisms be-longing to ATCC came from American Type Culture Collection, routinely used for the evaluation of antimicrobials. […]
(§3) Samples containing examined compounds were dissolved in dimethyl sulfoxide (DMSO). […]
(§4) Subsequently, the MIC (Minimal Inhibitory Concentration) of the compounds was ex-amined by the microdilution broth method, using their two-fold dilutions in Mueller- […]
(§5) Hinton broth or (for bacteria) and RPMI 1640 broth with MOPS (for fungi) prepared in 96-well polystyrene plates. Final concentrations of the compounds ranged from 1000 to 0.488 µg/ml. Microbial suspensions were prepared in 0.85% NaCl with an optical density of 0.5 McFarland standard. Next each bacterial or fungal suspension was added per each well containing broth and various concentrations of the examined compounds. After incuba-

[2] = tested on: Proteus mirabilis ATCC 12453; assay: Broth microdilution MIC/MBC; type: cell-based
Description: as §1, §2, §3, §4, §5

[3] = tested on: Pseudomonas aeruginosa ATCC 9027; assay: Broth microdilution MIC/MBC; type: cell-based; settings: ATCC9027
Description: as §1, §2, §3, §4, §5

[4] = tested on: Salmonella typhimurium ATCC 14028; assay: Broth microdilution MIC/MBC; type: cell-based
Description: as §1, §2, §3, §4, §5

[5] = tested on: Staphylococcus aureus ATCC 29213; assay: Broth microdilution MIC/MBC; type: cell-based; settings: for MBC / MIC: ATCC29213
Description: as §1, §2, §3, §4, §5

[6] = tested on: Staphylococcus aureus ATCC 43300; assay: Broth microdilution MIC/MBC; type: cell-based; settings: Staphylococcus aureus ATCC 43300 (MRSA)
Description: as §1, §2, §3, §4, §5

[7] = tested on: Staphylococcus epidermidis ATCC 12228; assay: Broth microdilution MIC/MBC; type: cell-based; settings: for MBC: ATCC12228; for MIC: ATCC12228, read-out: MIC
Description: as §1, §2, §3, §4, §5

[8] = tested on: Bacillus subtilis ATCC 6633; assay: Broth microdilution MIC/MBC; type: cell-based; settings: for MBC: ATCC6633
Description: Detailed procedures are presented in the Supplementary Materials. […]
as §1
as §2, with “antimicrobials. All the used microbial cultures were first subcultured on nu-trient agar or Sabouraud agar at 35°C for 18-24 h or 30°C for 24-48 h for bacteria and fungi,” for “antimicrobials.”
(§6) The surface of Mueller-Hinton agar (for bacteria) and RPMI 1640 with MOPS (for fungi) were inoculated with the suspensions of bacterial or fungal species. Microbial suspensions were prepared in sterile saline with an optical density of McFarland standard scale 0.5.
(§7) Samples containing examined compounds were dissolved in dimethyl sulfoxide (DMSO).
(§8) Furthermore, bacterial and fungal suspensions were put onto Petri dishes with solid me-dia containing 2 mg/mL of the tested compounds followed incubation at 37°C for 24h and 30°C for 48h for bacteria and fungi, respectively. The inhibition of microbial growth was judged by comparison with a control culture prepared without any sample tested. Ciprof-loxacin, vancomycin, nitrofurantoin, cefuroxime, ampicillin or nystatin (Sigma) were used as a reference antibacterial or antifungal compounds, respectively.
as §4, §5

[9] = tested on: Bacillus cereus ATCC 10876; assay: Broth microdilution MIC/MBC; type: cell-based; settings: for MBC: ATCC10876; for MIC: ATCC10876, read-out: MIC
Description: as §1
as §2, with “antimicrobials. All the used microbial cultures were first subcultured on nu-trient agar or Sabouraud agar at 35°C for 18-24 h or 30°C for 24-48 h for bacteria and fungi,” for “antimicrobials.”
as §6, §7, §8, §4, §5

[10] = tested on: Bordetella bronchiseptica ATCC 4617; assay: Broth microdilution MIC/MBC; type: cell-based
Description: as §1
as §2, with “antimicrobials. All the used microbial cultures were first subcultured on nu-trient agar or Sabouraud agar at 35°C for 18-24 h or 30°C for 24-48 h for bacteria and fungi,” for “antimicrobials.”
as §6, §7, §8, §4, §5

[11] = tested on: Enterococcus faecalis ATCC 29212; assay: Broth microdilution MIC/MBC; type: cell-based; settings: for MBC: ATCC29212, read-out: MBC; for MIC: ATCC29212, read-out: MIC
Description: as §1
as §2, with “antimicrobials. All the used microbial cultures were first subcultured on nu-trient agar or Sabouraud agar at 35°C for 18-24 h or 30°C for 24-48 h for bacteria and fungi,” for “antimicrobials.”
as §6, §7, §8, §4, §5

[12] = tested on: Escherichia coli ATCC 25922; assay: Broth microdilution MIC/MBC; type: cell-based
Description: as §1
as §2, with “antimicrobials. All the used microbial cultures were first subcultured on nu-trient agar or Sabouraud agar at 35°C for 18-24 h or 30°C for 24-48 h for bacteria and fungi,” for “antimicrobials.”
as §6, §7, §8, §4, §5

[13] = tested on: Klebsiella pneumoniae ATCC 13883; assay: Broth microdilution MIC/MBC; type: cell-based
Description: as §1
as §2, with “antimicrobials. All the used microbial cultures were first subcultured on nu-trient agar or Sabouraud agar at 35°C for 18-24 h or 30°C for 24-48 h for bacteria and fungi,” for “antimicrobials.”
as §6, §7, §8, §4, §5

[14] = tested on: Candida albicans ATCC 10231; assay: Broth microdilution MIC/MFC; type: cell-based; settings: ATCC10231, read-out: MIC
Description: as §1
as §2, with “antimicrobials. All the used microbial cultures were first subcultured on nu-trient agar or Sabouraud agar at 35°C for 18-24 h or 30°C for 24-48 h for bacteria and fungi,” for “antimicrobials.”
as §6, §7, §8, §4, §5

[15] = tested on: Candida albicans ATCC 2091; assay: Broth microdilution MIC/MFC; type: cell-based; settings: ATCC2091, read-out: MIC
Description: as §1
as §2, with “antimicrobials. All the used microbial cultures were first subcultured on nu-trient agar or Sabouraud agar at 35°C for 18-24 h or 30°C for 24-48 h for bacteria and fungi,” for “antimicrobials.”
as §6, §7, §8, §4, §5

[16] = tested on: Candida glabrata ATCC 90030; assay: Broth microdilution MIC/MFC; type: cell-based; settings: for MIC: ATCC90030, read-out: MIC
Description: as §1
as §2, with “antimicrobials. All the used microbial cultures were first subcultured on nu-trient agar or Sabouraud agar at 35°C for 18-24 h or 30°C for 24-48 h for bacteria and fungi,” for “antimicrobials.”
as §6, §7, §8, §4, §5

[17] = tested on: Candida krusei ATCC 14243; assay: Broth microdilution MIC/MFC; type: cell-based; settings: Pichia kudriavzevii, ATCC14243, read-out: MIC
Description: as §1
as §2, with “antimicrobials. All the used microbial cultures were first subcultured on nu-trient agar or Sabouraud agar at 35°C for 18-24 h or 30°C for 24-48 h for bacteria and fungi,” for “antimicrobials.”
as §6, §7, §8, §4, §5

[18] = tested on: Candida parapsilosis ATCC 22019; assay: Broth microdilution MIC/MFC; type: cell-based; settings: for MIC: ATCC22019, read-out: MIC
Description: as §1
as §2, with “antimicrobials. All the used microbial cultures were first subcultured on nu-trient agar or Sabouraud agar at 35°C for 18-24 h or 30°C for 24-48 h for bacteria and fungi,” for “antimicrobials.”
as §6, §7, §8, §4, §5

[19] = tested on: reference Gram-positive bacteria; assay: Broth microdilution, summary over the Gram-positive panel; type: cell-based; settings: read-out: MIC
Description: as §1, §2, §3, §4, §5

[20] = tested on: Gram-negative bacteria; assay: Broth microdilution, summary over the Gram-negative panel; type: cell-based
Description: as §1
as §2, with “antimicrobials. All the used microbial cultures were first subcultured on nu-trient agar or Sabouraud agar at 35°C for 18-24 h or 30°C for 24-48 h for bacteria and fungi,” for “antimicrobials.”
as §6, §7, §8, §4, §5

## Cc1cccc(/C=N/NC(=O)c2ccc(O)cc2O)c1 [Compound 2, 2,4-dihydroxy-N-[(3-methylphenyl)methylidene]benzohydrazide]
[1]
  MBC/MIC: 8
  MIC: 31.25 µg/mL (≈ 116 µM)
  MBC: 250 µg/mL (≈ 925 µM)
[1]; ATCC10240, read-out: MIC
  MIC: 31.2 µg/mL (≈ 116 µM)
[2]
  MBC/MIC: > 1
[2]; ATCC12453
  MBC: > 1000 µg/mL
  MIC: 1000 µg/mL (≈ 3700 µM)
[3]
  MIC: > 1000 µg/mL
[4]
  MBC/MIC: > 1
[4]; Salmonella enterica
  MBC: > 1000 µg/mL
  MIC: 1000 µg/mL (≈ 3700 µM)
[5]
  MBC/MIC: 1
  MBC: 250 µg/mL (≈ 925 µM)
  MIC: 250 µg/mL (≈ 925 µM)
[6]
  MBC: 500 µg/mL (≈ 1850 µM)
  MBC/MIC: 2
  MIC: 250 µg/mL (≈ 925 µM)
[7]
  MBC/MIC: 2
  MBC: 500 µg/mL (≈ 1850 µM)
  MIC: 250 µg/mL (≈ 925 µM)
[8]
  MBC/MIC: 8
  MIC: 62.5 µg/mL (≈ 231 µM)
  MBC: 500 µg/mL (≈ 1850 µM)
[8]; ATCC6633, read-out: MIC
  MIC: 62.5 µg/mL (≈ 231 µM)
[9]
  MBC/MIC: 2
  MBC: 250 µg/mL (≈ 925 µM)
  MIC: 125 µg/mL (≈ 462 µM)
[10]
  MBC/MIC: > 1
[10]; ATCC4617
  MBC: > 1000 µg/mL
  MIC: 1000 µg/mL (≈ 3700 µM)
[11]
  MBC/MIC: 1
  MBC: 500 µg/mL (≈ 1850 µM)
  MIC: 500 µg/mL (≈ 1850 µM)
[12]
  MBC/MIC: > 1
[12]; ATCC25922
  MBC: > 1000 µg/mL
  MIC: 1000 µg/mL (≈ 3700 µM)
[13]
  MBC/MIC: > 1
[13]; ATCC13883
  MBC: > 1000 µg/mL
  MIC: 1000 µg/mL (≈ 3700 µM)
[14]
  MIC: > 1000 µg/mL
[15]
  MIC: > 1000 µg/mL
[16]
  MFC/MIC: 2
[16]; Nakaseomyces glabratus, ATCC90030, read-out: MFC
  MFC: 500 µg/mL (≈ 1850 µM)
[16]; Nakaseomyces glabratus
  MIC: 250 µg/mL (≈ 925 µM)
[17]
  MIC: > 1000 µg/mL
[18]
  MFC/MIC: > 2
[18]; Lodderomyces parapsilosis, ATCC22019, read-out: MFC
  MFC: > 1000 µg/mL
[18]; Lodderomyces parapsilosis
  MIC: 500 µg/mL (≈ 1850 µM)
[19]
  MIC: 15.6 to 1000 µg/mL (≈ 57.8 to 3700 µM)
[20]
  MBC: > 1000 µg/mL
  MIC: 500 to 1000 µg/mL (≈ 1850 to 3700 µM)

## COc1ccc(/C=N/NC(=O)c2ccc(O)cc2O)cc1Br [Compound 10, N-[(3-bromo-4-methoxyphenyl)methylidene]-2,4-dihydroxybenzohydrazide]
[1]
  MBC/MIC: > 4
  MBC: > 1000 µg/mL
[1]; ATCC10240, read-out: MIC
  MIC: 250 µg/mL (≈ 685 µM)
[2]; ATCC12453
  MIC: > 1000 µg/mL
[3]
  MIC: > 1000 µg/mL
[4]; Salmonella enterica
  MIC: > 1000 µg/mL
[5]
  MBC/MIC: 16
  MBC: 250 µg/mL (≈ 685 µM)
  MIC: 15.6 µg/mL (≈ 42.8 µM)
[6]
  MBC: 500 µg/mL (≈ 1370 µM)
  MBC/MIC: 16
  MIC: 31.2 µg/mL (≈ 85.6 µM)
[7]
  MBC/MIC: > 1
  MBC: 1000 µg/mL (≈ 2740 µM)
  MIC: 1000 µg/mL (≈ 2740 µM)
[8]
  MBC/MIC: > 4
  MBC: > 1000 µg/mL
[8]; ATCC6633, read-out: MIC
  MIC: 250 µg/mL (≈ 685 µM)
[9]
  MBC/MIC: 2
  MBC: 250 µg/mL (≈ 685 µM)
  MIC: 125 µg/mL (≈ 342 µM)
[10]; ATCC4617
  MIC: > 1000 µg/mL
[11]
  MBC/MIC: 4
  MBC: 1000 µg/mL (≈ 2740 µM)
  MIC: 250 µg/mL (≈ 685 µM)
[12]; ATCC25922
  MIC: > 1000 µg/mL
[13]; ATCC13883
  MIC: > 1000 µg/mL
[14]
  MIC: > 1000 µg/mL
[15]
  MIC: > 1000 µg/mL
[16]; Nakaseomyces glabratus
  MIC: > 1000 µg/mL
[17]
  MIC: > 1000 µg/mL
[18]; Lodderomyces parapsilosis
  MIC: > 1000 µg/mL
[19]
  MIC: 15.6 to 1000 µg/mL (≈ 42.8 to 2740 µM)
other
  melting point: 260 °C
